pIC50: −log10 of the molar value. Calls of active or inactive are those of the source. The calls are words filed in the database; no cut-off is given here.

Two compounds from ChEMBL document CHEMBL4765225, “A peptide inhibitor of antibody-dependent cell-mediated cytotoxicity against EGFR/folate receptor-alpha double positive cells” (Medchemcomm, 2018) can be followed below.

Test [1] deals with IGROV-1. Put plainly: Induction of CD20 antibody recruitment on human IGROV1 cell surface assessed as ternary complex formation by fluorescence microscopy. Type of test: functional.
In test [2] the test system is IGROV-1. Description: Induction of CD20 antibody accumulation on human IGROV1 cell surface assessed as ternary complex formation by fluorescence microscopy. Type of test: functional.
The subject of the next test is A549. Description: Induction of EGFR antibody accumulation on human A549 cell surface assessed as ternary complex formation by fluorescence microscopy. It is filed as functional, tissue-based.
Test [3] is described as follows: Inhibition of antibody-dependent cell-mediated cytotoxicity in human IGROV1 cells incubated for 10 mins followed by addition of KHYG-1/FC-gamma-3A-158V by LDH assay. Type of test: functional, cell-based. Conditions: IGROV-1, 10 min.
For test [4], the system named is IGROV-1. Description: Induction of CD20 antibody recruitment on human IGROV1 cell surface by flow cytometry analysis. It is filed as functional, tissue-based. In general terms: In flow cytometry, cells or beads pass a laser one at a time.
For test [5], the system named is IGROV-1. Description: Induction of CD20 antibody accumulation on human IGROV1 cell surface assessed as ternary complex formation in presence of excess folate by fluorescence microscopy. Type of test: functional, tissue-based.
Test [6] has as its system IGROV-1. Put plainly: Induction of EGFR antibody accumulation on human IGROV1 cell surface assessed as ternary complex formation by fluorescence microscopy. Type of test: functional.
Test [7] has as its system IGROV-1. Description: Induction of EGFR antibody accumulation on human IGROV1 cell surface assessed as ternary complex formation in presence of excess folate by fluorescence microscopy. It is filed as functional, tissue-based.

`CC(C)C[C@@H]1NC(=O)[C@H](Cc2c[nH]cn2)NC(=O)[C@H](Cc2c[nH]c3ccccc23)NC(=O)[C@H](C)NC(=O)[C@@H](NC(=O)[C@H](CC(=O)O)NC(=O)CCOCCOCCOCCOCCOCCOCCNC(=O)C(CCCCNC(=O)c2ccc(-c3c4ccc(=[N+](C)C)cc-4oc4cc(N(C)C)ccc34)c(C(=O)[O-])c2)NC(=O)CCC(NC(=O)c2ccc(NCc3cnc4[nH]c(N)nc(=O)c4n3)cc2)C(=O)O)CSSC[C@@H](C(=O)N[C@H](C(N)=O)[C@@H](C)O)NC(=O)[C@H](Cc2c[nH]c3ccccc23)NC(=O)[C@H](C(C)C)NC(=O)[C@H](CC(C)C)NC(=O)[C@H](CCC(=O)O)NC(=O)CNC1=O` (some centres undefined): the result with IGROV-1 [1] and with IGROV-1 [2] was Active. The outcome in the test with A549 was inactive.

With `CC(C)C[C@@H]1NC(=O)[C@H](Cc2c[nH]cn2)NC(=O)[C@H](Cc2c[nH]c3ccccc23)NC(=O)[C@H](C)NC(=O)[C@@H](NC(=O)[C@H](CC(=O)O)NC(=O)CCOCCOCCOCCOCCOCCOCCNC(=O)CCC(NC(=O)c2ccc(NCc3cnc4[nH]c(N)nc(=O)c4n3)cc2)C(=O)O)CSSC[C@@H](C(=O)N[C@H](C(N)=O)[C@@H](C)O)NC(=O)[C@H](Cc2c[nH]c3ccccc23)NC(=O)[C@H](C(C)C)NC(=O)[C@H](CC(C)C)NC(=O)[C@H](CCC(=O)O)NC(=O)CNC1=O` (some centres undefined), the pIC50 in test [3] is 9.40. The result in the test with IGROV-1 [4] and with IGROV-1 [6] was Active. Moreover, the result in the test with IGROV-1 [5], in the test with IGROV-1 [7] and in the test with A549 was inactive.

In general, pIC50 refers to −log10 of the IC50, conventionally taken in molar units.
